Calls of active or inactive are those of the source. How the calls were made is not given here.
Target: Muscarinic acetylcholine receptor M1 (Homo sapiens) (UniProt P11229)
Assay: potentiation of ACh response at M1 – cell-based, human M1, selectivity assay for M5 PAM discovery project (AID 743097)
Conditions: CHO-K1 hM1, Fluo-4 calcium flux, ACh EC20 potentiation

Chain of Muscarinic acetylcholine receptor M1 (Homo sapiens) (P11229 whole entry, looked up): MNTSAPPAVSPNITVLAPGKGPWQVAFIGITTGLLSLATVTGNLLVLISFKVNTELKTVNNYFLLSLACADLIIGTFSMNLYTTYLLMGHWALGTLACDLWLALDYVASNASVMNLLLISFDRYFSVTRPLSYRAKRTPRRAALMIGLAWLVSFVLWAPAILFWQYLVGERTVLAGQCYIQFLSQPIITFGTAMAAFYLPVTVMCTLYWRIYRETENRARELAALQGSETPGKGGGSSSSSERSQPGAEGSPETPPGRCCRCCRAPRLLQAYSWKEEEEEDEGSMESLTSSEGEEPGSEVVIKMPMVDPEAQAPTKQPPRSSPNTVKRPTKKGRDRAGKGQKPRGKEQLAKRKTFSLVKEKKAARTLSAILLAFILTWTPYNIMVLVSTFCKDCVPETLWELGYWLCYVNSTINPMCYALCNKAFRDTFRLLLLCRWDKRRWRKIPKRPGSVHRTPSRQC

SMILES	EC50	% of ACh max response (at 30 µM (top of the series))
CCN(Cc1ccccc1Cl)C(=O)C1CCN(S(=O)(=O)c2ccc3cn[nH]c3c2)CC1	3.97 µM	–
CCN(Cc1ccccc1Cl)C(=O)C1CCN(S(=O)(=O)c2ccc3[nH]ncc3c2)CC1	2.52 µM	–
CCN(Cc1ccccc1C(F)(F)F)C(=O)C1CCN(S(=O)(=O)c2ccc3[nH]ncc3c2)CC1	6.99 µM	–
CCN(Cc1ccccc1C(F)(F)F)C(=O)C1(F)CCN(S(=O)(=O)c2ccc3[nH]ncc3c2)CC1	4.84 µM	–
CCN(C(=O)C1CCN(S(=O)(=O)c2ccc3[nH]ncc3c2)CC1)[C@H](C)c1ccccc1	5.28 µM	–
CCN(C(=O)C1CCN(S(=O)(=O)c2ccc(OC)cc2)CC1)[C@H](C)c1ccccc1	–	inactive
